In patent publication US7566808B2, “Management of ophthalmologic disorders, including macular degeneration” (President and Fellows of Harvard College, priority 2004, dated 2009):

Key:
[1] = system: A2E formation from all-trans-retinal and ethanolamine; test: In vitro A2E formation in the presence of aromatic amine
Protocol: 100 mg (355 μmoles) of all-trans-retinal was dissolved in 3 mL followed by the addition of 9.5 μL of glacial acetic acid 9.5 μL of ethanolamine (155 μmoles). This solution was aliquoted into 300 μL fractions. 3-aminoethylbenzoate (15.5 μmoles) was added to the samples at 0, 2, 3.75, 14, 16.25, 18.0833 19.917 23.75 and 48 hrs. […] The solutions were shaken at room temperature for 48 hrs. The solutions were then kept at −80° C. and 15 μL was diluted to 250 μL (methanol). The solutions (15 μL) were then analyzed on a reverse phase (C18-5 μm-4.6 mm×150 mm) column on a linear gradient 85%-96% methanol/water and UV detector at 430 nm to determine the amount of A2E formation. The percent A2E formation was compared to A2E formation at 48 h in the absence of aromatic amine.

[2] = system: bovine retinal pigment epithelial membrane system (11-cis-retinol formation); test: 11-cis-retinol formation in RPE membranes (IMH activity / RPE65 function); assay type: biochemical
Protocol: A control reaction mixture without any inhibitor was also incubated at room temperature for 15 min. At the end of the 15 min incubation, all-trans-retinol [11-12-^3H2] (0.2 μM) was added to the reaction mixtures (100 mM Tris pH 8.0, […] of RPE protein, 0.2% BSA 100 μM of DPPC, 1 mM of DTT and 0.2 μM all-trans-retinol [11-12-^3H2]) and incubated at room temperature for 30 min. At the end of this 30 minutes of incubation, an aliquot of the reactions were quenched to verify the equal addition of all-trans-retinol [11,12-^3H2] and the effect of these inhibitors on LRAT. After this the control reaction mixture was incubated with atRA (60 & 6 μM), 13cRA (60 & 6 μM) or 4-HPR (60 & 6 μM) for 15 min. Now all the reaction mixtures were incubated with 30 μM of apo-rCRALBP (100 mM Tris pH 8.0, 7.7 μg of RPE protein, 0.2% BSA 100 μm of DPPC, 1 mM of DTT 30 μM apo-rCRALBP and 0.2 μM all-trans-retinol [11-12-^3H2]) at 37° C. for 30 minutes. At the end of this incubation period the 200 μL reaction mixture was quenched by the addition of 750 μL ice cold methanol after which 100 μL of 1M sodium chloride solution was added, and 500 μl hexane (containing butylated hydroxy toluene at 1 mg/mL) was added to effect extraction of the retinoids. The retinoids were analyzed as previously described (27). The amount of 11-cis-retinol formed was used as a measurement of IMH activity. All experiments were performed in triplicate and the average values of these measurements were used for analysis.
A control reaction mixture without any inhibitor was also incubated at room temperature for 15 min. At the end of the 15 min incubation, all-trans-retinol [11-12-^3H2] (0.2 μM) was added to the reaction mixtures (100 mM Tris pH 8.0, 76.7 μg of RPE protein, 0.2% BSA 100 μM of DPPC, 1 mM of DTT and 0.2 μM all-trans-retinol [11-12-^3H2]) and incubated at room temperature for 30 min. […] The retinoids were analyzed as previously described (27). […]

abcr knockout mice = test: In vivo A2E accumulation in abcr knockout mice; settings: versus no drug
Protocol: Effects on accumulation of A2E in abcr knockout mice by farnesyl decyl ketone and N-palmityl farnesimide were investigated. Mice were injected with 50 mg/kg drug in 25 microliters of DMSO or with only DMSO for the control group once or twice a week. After 2 to 2½ months, the mice were sacrificed, and A2E and iso-A2E were harvested and quantitated from 4 eyes for each drug or control.

tLRAT = target: T1, tLRAT (Homo sapiens, UniProt O95237); test: mRPE65 concentration-dependent esterification of vitamin A by tLRAT; assay type: biochemical; settings: FIG. 11C
T1 construct: This form of LRAT has the two N and C-terminal transmembrane domains of LRAT truncated, and is His-tagged; made in house
T1 sequence (O95237 31-196 limits assumed): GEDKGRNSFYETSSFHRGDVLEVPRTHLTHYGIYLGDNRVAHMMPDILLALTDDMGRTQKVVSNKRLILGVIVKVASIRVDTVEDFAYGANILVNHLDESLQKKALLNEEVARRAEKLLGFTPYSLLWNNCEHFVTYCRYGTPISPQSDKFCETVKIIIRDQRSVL
Protocol: Effect of sRPE65 on tLRAT mediated esterification: The activity of LRAT was determined by monitoring the formation of tLRAT catalyzed retinyl esters from added all-trans-retinol [11,12-^3H2] sRPE65 and/or DPPC/dodecyl maltoside. In all of the studies reported here truncated LRAT (tLRAT) is used (Jahng et al., 2003b). This form of LRAT has the two N and C-terminal transmembrane domains of LRAT truncated, and is His-tagged which allows for the bacterial expression of LRAT and for its full purification (Bok et al., 2003). LRAT has never been purified and is not expressible in bacteria. Kinetic studies on LRAT and tLRAT show them to behave identically (Bok et al., 2003). […] The amount of all-trans-retinyl palmitate [11,12-^3H2] formed as determined by normal phase HPLC and was used as a measure of activity. […]
mRPE65 concentration-dependent esterification of vitamin A: The effect of mRPE65 concentration on the rates of all-trans-retinyl palmitate formation was determined by monitoring the tLRAT catalyzed formation of all-trans-retinyl palmitate from added [11,12-^3H2]-all-trans-retinol and mRPE65. […] The amount of all-trans-retinyl palmitate [11,12-^3H2] formed as determined by normal phase-HPLC and was used as a measure of activity. The kinetic paramaters KM (Kapp) and N were calculated as described before (Segal 1993). […]

With `CCOC(=O)c1cccc(N)c1` [3-aminoethylbenzoate, ethyl 3-aminobenzoate] the “A2E % formation (48 Hrs = 100)” value ([1]; amine added at 0 hrs) was 3.98%, the “A2E % formation (48 Hrs = 100)” value ([1]; amine added at 2 hrs) was 8.67% and the “A2E % formation (48 Hrs = 100)” value ([1]; amine added at 3.75 hrs) was 7.71%. For the same molecule, the “A2E % formation (48 Hrs = 100)” value ([1]; amine added at 14 hrs) was 19.73%, the “A2E % formation (48 Hrs = 100)” value ([1]; amine added at 16.25 hrs) was 19.25% and the “A2E % formation (48 Hrs = 100)” value ([1]; amine added at 18.0833 hrs) was 23.70%. For the same molecule, the “A2E % formation (48 Hrs = 100)” value ([1]; amine added at 19.91667 hrs) was 27.65%, the “A2E % formation (48 Hrs = 100)” value ([1]; amine added at 23.75 hrs) was 22.44% and the “A2E % formation (48 Hrs = 100)” value ([1]; amine added at 48 hrs) was 100.00%.

In the case of `CC1=C(/C=C/C(C)=C/C=C/C(C)=C/C(=O)Nc2ccc(O)cc2)C(C)(C)CCC1` [N-(4-hydroxyphenyl)retinamide], the “inhibition of 11-cis-retinol formation, pre-incubation with inhibitor” value ([2]; 60 μM or 6 μM, pre-incubation before vitamin A, FIG. 8) is reported as “substantially weaker”.

With `CC1=C(/C=C/C(C)=C/C=C/C(C)=C/C(=O)O)C(C)(C)CCC1` [all-trans-retinoic acid] the “inhibition of 11-cis-retinol formation, membranes pre-incubated with vitamin A before inhibitor” value ([2]; 60 μM, data not shown) was “not susceptible to inhibition”.

With `CCCCCCCCCCC(=O)CC=C(C)CCC=C(C)CCC=C(C)C` [Farnesyl decyl ketone, farnesyl decyl ketone] the “reduction of total accumulation” value (abcr knockout mice) was “about 80%”.

In the case of `CCCCCCCCCCCCCCCCNC(=O)C/C=C(\C)CC/C=C(\C)CCC=C(C)C` [N-Palmityl farnesimide, palmityl farnesimide], the “reduction of total accumulation” value (abcr knockout mice) is reported as “about 47%”.

B1: mRPE65: membrane-associated, palmitoylated form of RPE65; acts as palmitoyl donor for LRAT (protein, UniProt Q16518 2-533, looked up)
Retinoid isomerohydrolase: SIQVEHPAGGYKKLFETVEELSSPLTAHVTGRIPLWLTGSLLRCGPGLFEVGSEPFYHLFDGQALLHKFDFKEGHVTYHRRFIRTDAYVRAMTEKRIVITEFGTCAFPDPCKNIFSRFFSYFRGVEVTDNALVNVYPVGEDYYACTETNFITKINPETLETIKQVDLCNYVSVNGATAHPHIENDGTVYNIGNCFGKNFSIAYNIVKIPPLQADKEDPISKSEIVVQFPCSDRFKPSYVHSFGLTPNYIVFVETPVKINLFKFLSSWSLWGANYMDCFESNETMGVWLHIADKKRKKYLNNKYRTSPFNLFHHINTYEDNGFLIVDLCCWKGFEFVYNYLYLANLRENWEEVKKNARKAPQPEVRRYVLPLNIDKADTGKNLVTLPNTTATAILCSDETIWLEPEVLFSGPRQAFEFPQINYQKYCGKPYTYAYGLGLNHFVPDRLCKLNVKTKETWVWQEPDSYPSEPIFVSHPDALEEDDGVVLSVVVSPGAGQKPAYLLILNAKDLSEVARAEVEINIPVTFHGLFKKS
modifications: palmitoylated membrane-associated form
notes: membrane-associated, palmitoylated form of RPE65; acts as palmitoyl donor for LRAT
With B1 the “Hill plot N” value (tLRAT) was 2.54.
